Experimental data published in PMC5770468, “Cardiac glycoside/aglycones inhibit HIV-1 gene expression by a mechanism requiring MEK1/2-ERK1/2 signaling” (Scientific Reports, 2018).

Key:
HeLa rtTA-HIV-ΔMls cells = assay: In vitro therapeutic index (CC20/IC50) in HeLa rtTA-HIV-ΔMls cells; assay type: cell-based, human
Source text: (§1) Without median toxic dose (TD50) and half-maximal effective concentration (EC50) data available to calculate TIs (in vivo) from HIV patients treated with CSs, we determined the following TIs for each cell type treated with a CS (summarized in Supplementary Table S1): in vitro TIs from HeLa rtTA-HIV-ΔMls cells using CC20/IC50 (instead of CC50/IC50), in vitro TIs from 24ST1NLESG cells using CC50/IC50, and ex vivo TIs from HIV-infected PBMCs using CC50/IC50 (at day 14 of culture approximated from available cell viability trends for CC50s of Supplementary Fig. S13 and inferred near maximal IC50s).
Supplementary Table S1. Comparison of the in vitro (IVTI) and ex vivo therapeutic indices (EVTIs) of CSs and their impact on the expression of essential HIV-1 proteins.
Notes: data for CC20, CC50, and IC50s for each drug/compound were estimated from dose response curves in Figures 1-2, Supplementary Table S1, Supplementary Figures S2, S5, and S13, and Wong et al.
">" means the estimate has not been accurately determined but is greater than the highest concentration […]
"( )" indicates preliminary data that was not shown. aCC20 instead of CC50 was estimated from dose response curves and used for calculation of IVTIs. bCells were treated at ~IC90of a CS.
(1 picture or pasted object on this page, not shown here)

[1] = test system: nascent protein synthesis; assay type: cell-based, human; conditions: 220 nM
Experimental: To monitor HIV-1 gene expression or replication, Gag release into cell culture supernatants were assayed by ELISA using a p24^CA antigen capture assay kit (AIDS & Cancer Virus Program, NCI-Frederick, Frederick, MD USA). Media harvested from HIV clinical isolates were diluted ~10 fold (or as necessary) prior to performing this assay. For analysis of HIV-1 and SR protein expression (and phosphorylation states with calf intestinal alkaline phosphatase treatments), cells were lysed and analyzed by western blot as previously outlined. Phosphatase inhibitors (e.g. 10 mM sodium fluoride, 2 mM sodium orthovanadate) were added to solutions requiring phospho protein analyses. […] Activation of MAPKs was determined by western blot quantitation and calculation of phospho/total protein levels. […] Stain-Free™ gels were casted and proteins were detected as described in 10% TGX-Stain-Free FastCast Acrylamide Kit from Bio-Rad (#161-0183). […] In representative gel/blot sets, samples were electrophoresed from the same experiment as controls, resolved simultaneously on identically cast gel(s), transferred to same PVDF (by either wet electrophoretic or by Bio-Rad Trans-Blot® Turbo Transfer System), and detected at same time. […] Cells were subsequently washed, whole cell lysates prepared, and proteins quantified by western blot using an anti-puromycin antibody (EMD Millipore, #anti-12D10) as described above. […]

HIV-infected PBMCs = assay: Ex vivo therapeutic index (CC50/IC50) in HIV-infected PBMCs; assay type: cell-based, human; conditions: CC50/IC50, day 14, HIV-infected PBMCs
Source text: as §1
Supplementary Figure S13. Estimation of the approximate ex vivo therapeutic indices of several
CSs. Ex vivo TIs were calculated from CC50/IC50 from day 14 of culture of HIV-infected patient PBMCs treated with CSs. CC50s were estimated/extrapolated from data points by their trends (dashed arrows) from XTT assays of cell viability (gray circles) and their inferred near maximal IC50s estimated from results on HIV-1 p24CA (Gag) production (black circles) from Figures 2f-h and some data points published on digoxin [Wong et al. (2013). PLoS Pathog 9(3):e1003241]. […]

[2] = parameters: method as in PMID 23555254, PMID 17706876, PMID 6409639; conditions: cited from earlier work
[3] = test system: host alternative RNA splicing; parameters: method as in PMID 22456266; conditions: of 8,175 analyzed, cited from earlier work
[4] = test system: HIV-1 (Gag) gene expression; conditions: HeLa rtTA-HIV-ΔMls cells; read-out: IC90, HIV-1 (Gag) gene expression (digoxin, published); cited from earlier work

SMILES: C[C@@H]1O[C@@H](O[C@H]2C[C@@H](O)[C@]3(CO)[C@H]4[C@H](O)C[C@]5(C)[C@@H](C6=CC(=O)OC6)CC[C@]5(O)[C@@H]4CC[C@]3(O)C2)[C@H](O)[C@H](O)[C@H]1O [Ouabain]
- better in vitro TI than digoxin (HeLa rtTA-HIV-ΔMls cells): 1.2 fold

SMILES: COc1ccc(C[C@H]2NC[C@H](O)[C@H]2OC(C)=O)cc1 [anisomycin, Anisomycin]
- effect on nascent protein synthesis [1]: little to no effect

SMILES: C[C@]12CC[C@H](O)C[C@H]1CC[C@@H]1[C@@H]2CC[C@]2(C)[C@@H](C3=CC(=O)OC3)CC[C@]12O [Digitoxigenin]
- better approximate ex vivo TI than FDA-approved counterparts (HIV-infected PBMCs): ≥ 1.5 fold

SMILES: C[C@H]1O[C@@H](O[C@H]2[C@@H](O)C[C@H](O[C@H]3[C@@H](O)C[C@H](O[C@H]4CC[C@@]5(C)[C@H](CC[C@@H]6[C@@H]5CC[C@]5(C)[C@@H](C7=CC(=O)OC7)CC[C@]65O)C4)O[C@@H]3C)O[C@@H]2C)C[C@H](O)[C@@H]1O [Digitoxin]
- recommended serum concentration in patients treated for heart conditions [2]: 20 to 34 nM
- host splicing events affected ([3]; q-value = 0, sepscore ≥ 1.0): 1681 events
- host splicing events affected, share of analyzed [3]: ~ 20.6%

SMILES: C[C@H]1O[C@@H](O[C@H]2[C@@H](O)C[C@H](O[C@H]3[C@@H](O)C[C@H](O[C@H]4CC[C@@]5(C)[C@H](CC[C@@H]6[C@@H]5C[C@@H](O)[C@]5(C)[C@@H](C7=CC(=O)OC7)CC[C@]65O)C4)O[C@@H]3C)O[C@@H]2C)C[C@H](O)[C@@H]1O [Digoxin]
- IC90 [4]: 100 nM
